# In patent US20060141024A1, “Synergistic combination kit of alpha,beta-arteether, sulfadoxin and pyrimethamine for treatment of severe/multi-drug resistant cerebral malaria” (COUNCIL OF SIENTIFIC AND INDUSTRIAL RESEARCH, priority 2004, published 2006):
# Where two headings read alike, the source gives them in different places.
# Experiments:
# [1] = test system: multi drug resistant P. yoelii nigeriensis; assay: Arteether (im, x3) and Fansidar (oral, x1) in combination against multi drug resistant P. yoelii nigeriensis infection in Swiss mice; type: in vivo, Plasmodium yoelii nigeriensis
# Experimental: Experimental: Swiss mice (20±2 g) were inoculated intra peritoneal with 1×10^6 Plasmodium yoelii nigeriensis (malaria parasite) infected mouse red blood cells. Fansidar was suspended in tween 80 and then in triple distilled water and two different doses, i.e. 1.25-2.5 mg/kg were administered in previously infected Swiss mice. Fansidar was administered by oral route for only 1 day. α/β Arteether was dissolved in neutralized and sterilized ground nut oil and doses i.e. 1.25, 1.78 and 2.5mg/kg were administered by intramuscular route for 3 days. In other groups of infected mice these drugs were given individually for comparison. 2.5, 1.78 and 1.25 mg/kg and α/β arteether were given in combinations with 2.5 and 1.25 mg/kg Fansidar. One group of mice was kept as infected control. After treatment parasitaemia was recorded from tail blood smears of individual mouse. (Table-1)
# P. falciparum [2] = conditions: 211 patients of complicated P. falciparum malaria; cited from earlier work
# [3] = test system: multi drug resistant P. yoelii nigeriensis; assay: Shorter regimen of α/β arteether (im) and Fansidar (oral) against multi drug resistant P. yoelii nigeriensis in Swiss mice; type: in vivo, Plasmodium yoelii nigeriensis
# Experimental: Experimental: Swiss mice (20±2 g) were inoculated intra peritoneal with 1×10^6 Plasmodium yoelii nigeriensis (malaria parasite) infected mouse red blood cells. Faosidar was suspended in tween 80 and then in triple distilled water and 2.5 mg/kg dose was administered in previously infected Swiss mice. Fansidar was administered by oral route for only 1 day i.e. on day 0 or day 1. α/β Arteether was dissolved in neutralized and sterilized ground nut oil and doses i.e. 7.5 mg/kg×1, ×2, 5 mg/kg×1, ×2 by intramuscular route were given in combination with 2.5 mg/kg ×1 dose of Fansidar. These doses of both the drugs were given individually for comparison. One group of mice was kept as infected control. After treatment parasitaemia was recorded from tail blood smears of individual mouse.
# [4] = im, swiss mice; cited from earlier work
# [5] = test system: multi drug resistant P. yoelii nigeriensis; assay: Variable regimen of α/β arteether (oral, in oil) and Fansidar (oral) against multi drug resistant P. yoelii nigeriensis in Swiss mice; type: in vivo, Plasmodium yoelii nigeriensis
# Experimental: Experimental: Swiss mice (20±2 g) were inoculated intra peritoneal with 1×10^6 Plasmodium yoelii nigeriensis (malaria parasite) infected mouse red blood cells. Fansidar was suspended in tween 80 and then in triple distilled water and different doses i.e., 5, 2.5 and 1.25 mg/kg were admimstered in previously infected Swiss mice. Fansidar was administered by oral route for only 1 day i.e. on day 0. α/β Arteether was dissolved in neutralized and sterilized ground nut oil and doses i.e. 25 mg/kg×1 ×4, 12.5mg/kg×4 were given orally in combination with 5.0, 2.5 and 1.25 mg/kg ×1 dose of Fansidar. These doses of both the drugs were given individually for comparison. One group of mice was kept as infected control. After treatment parasitaemia was recorded from tail blood smears of individual mouse and their mean parasitaemia was calculated.
# P. falciparum [6] = conditions: arteether 150 mg i.m. daily for three days, uncomplicated P. falciparum malaria, cited from earlier work
# P. yoelii nigeriensis = assay: Curative dose against P. yoelii nigeriensis in swiss mice; type: in vivo, Plasmodium yoelii nigeriensis; conditions: for three days (x3), intramuscular
# Experimental: The curative dose of α,β arteether against P. yoelii nigeriensis in gwiss mice (a murine model equivalent to P. falciparum in human) is 7.5 mg/kg for three days. Sulfadoxin/pyrimethtnine combination is usually given for P. falciparum infection, to adult humans as a single dose of 1500 mg sulfadoxin and 75 mg pyremethamine (usually in 3 tablets of 500 mg sulfadoxin and 25 mg pyremethamine) (practical chemotherapy of malaria, WHO, Geneva 1990). For children if they are below 40 kg, only 2 tablets are recommended. […] Although resistance to Fansidar is documented in expatriates in East Africa (Schapira et al. 1986), the drug is reported to be generally effective in the indigenous population (Spencer et al. 1984) and it is treated as second line of drug and is the only affordable drug for chloroquine resistant cases in developing countries. In combination the proposed doses of α,β arteether plus sulfadoxin and pyrimethamine for humans would be 150 mg×3 (im injections) or 450-750 mg×5 (oral dose) of α,β arteether with three tablets of 500 mg sulfadoxin and 25 mg of pyrimethamine for P. falciparum. The proposed combination therapy will certainly reduce the incidence of recrudescence and new infection in high transmission areas.
# [7] = test system: multi drug resistant P. yoelii nigeriensis; assay: α/β arteether (oral, aqueous) and Fansidar (oral) against multi drug resistant P. yoelii nigeriensis in Swiss mice; type: in vivo, Plasmodium yoelii nigeriensis
# Experimental: Experimental: Swiss mice (20±2 g) were inoculated intra peritoneal with 1×10^6 Plasmodium yoelii nigeriensis (malaria parasite) infected mouse red blood cells. Fansidar was suspended in tween 80 and then in triple distilled water and different doses i.e. 2.5 and 1.25 mg/kg were administered in previously infected Swiss mice. Fansidar was administered by oral route for only 1 day i.e. on day 0 α/β Arteether was dissolved in tween 80 and triple distilled water and doses i.e. 24 and 12 and 6 mg/kg×4 were given orally in combination with 2.5 and 1.25 mg/kg ×1 dose of Fansidar. These doses of both the drugs were also given individually for comparison. One group of mice was kept as infected control. After treatment parasitaemia was recorded from tail blood smears of individual mouse and their mean parasitaemia was calculated.
# uncomplicated malaria = conditions: cited from earlier work
# cerebral malaria = conditions: comatose cerebral malaria cases; quinine intravenous; cited from earlier work
# P. falciparum [8] = conditions: cited from earlier work
# [9] = arteether 1.25 mg/kg x3 im alone
# [10] = arteether 1.78 mg/kg x3 im alone
# [11] = arteether 2.5 mg/kg x3 im alone
# [12] = arteether 5.0 mg/kg x1 (day 0) im alone
# [13] = arteether 5.0 mg/kg x2 (days 0, 1) im alone
# [14] = arteether 7.5 mg/kg x1 (day 0) im alone
# [15] = arteether 7.5 mg/kg x2 (days 0, 1) im alone
# [16] = arteether 12.5 mg/kg x4 oral (in oil) alone
# [17] = arteether 25.0 mg/kg x4 oral (in oil) alone
# [18] = arteether 6 mg/kg x4 oral (aqueous) alone
# [19] = arteether 12 mg/kg x4 oral (aqueous) alone
# [20] = arteether 24 mg/kg x4 oral (aqueous) alone
smiles,measurement,setting,value
"CCO[C@H]1O[C@@H]2O[C@@]3(C)CC[C@H]4[C@H](C)CC[C@@H]([C@H]1C)[C@@]24OO3 [α/β arteether, α,β-Arteether]",Cure rate (%),[1]; [9],0.0%
same,Day 4 mice negative/total,[1]; [9],3/6
same,Day 7 mice negative/total,[1]; [9],0/6
same,Cure rate (%),[1]; [10],16.6%
same,Day 4 mice negative/total,[1]; [10],6/6
same,Day 7 mice negative/total,[1]; [10],5/6
same,Day 14 mice negative/total,[1]; [10],2/2
same,Day 18 mice negative/total,[1]; [10],1/2
same,Day 21 mice negative/total,[1]; [10],1/2
same,Day 28 mice negative/total,[1]; [10],1/1
same,Cure rate (%),[1]; [11],66.6%
same,Day 4 mice negative/total,[1]; [11],6/6
same,Day 7 mice negative/total,[1]; [11],6/6
same,Day 14 mice negative/total,[1]; [11],4/4
same,Day 18 mice negative/total,[1]; [11],4/4
same,Day 21 mice negative/total,[1]; [11],4/4
same,Day 28 mice negative/total,[1]; [11],4/4
same,fever clearance time,P. falciparum [2],24 to 168 h
same,overall cure rate,P. falciparum [2],93%
same,Cure rate (%),[3]; [12],0.0%
same,Day 4 mice negative/total,[3]; [12],6/6
same,Day 7 mice negative/total,[3]; [12],2/6
same,Day 10 mice negative/total,[3]; [12],0/4
same,Cure rate (%),[3]; [13],83.3%
same,Day 4 mice negative/total,[3]; [13],6/6
same,Day 7 mice negative/total,[3]; [13],6/6
same,Day 10 mice negative/total,[3]; [13],6/6
same,Day 14 mice negative/total,[3]; [13],6/6
same,Day 21 mice negative/total,[3]; [13],5/5
same,Day 28 mice negative/total,[3]; [13],5/5
same,Cure rate (%),[3]; [14],83.3%
same,Day 4 mice negative/total,[3]; [14],6/6
same,Day 7 mice negative/total,[3]; [14],6/6
same,Day 10 mice negative/total,[3]; [14],6/6
same,Day 14 mice negative/total,[3]; [14],6/6
same,Day 21 mice negative/total,[3]; [14],5/5
same,Day 28 mice negative/total,[3]; [14],5/5
same,Cure rate (%),[3]; [15],100%
same,Day 4 mice negative/total,[3]; [15],6/6
same,Day 7 mice negative/total,[3]; [15],6/6
same,Day 10 mice negative/total,[3]; [15],6/6
same,Day 14 mice negative/total,[3]; [15],6/6
same,Day 21 mice negative/total,[3]; [15],6/6
same,Day 28 mice negative/total,[3]; [15],6/6
same,LD50,[4],1250 mg/kg
same,% Cure rate,[5]; [16],28.5%
same,Mice remained negative on day 4,[5]; [16],5/7
same,Mice remained negative on day 7,[5]; [16],3/7
same,Mice remained negative on day 14,[5]; [16],2/2
same,Mice remained negative on day 21,[5]; [16],2/2
same,Mice remained negative on day 28,[5]; [16],2/2
same,% Cure rate,[5]; [17],57.1%
same,Mice remained negative on day 4,[5]; [17],7/7
same,Mice remained negative on day 7,[5]; [17],7/7
same,Mice remained negative on day 14,[5]; [17],4/4
same,Mice remained negative on day 21,[5]; [17],4/4
same,Mice remained negative on day 28,[5]; [17],4/4
same,cure rate,P. falciparum [6]; 267 patients,97%
same,fever clearance time,P. falciparum [6],1 to 7 days
same,parasite clearance time,P. falciparum [6],1 to 3 days
same,curative dose,P. yoelii nigeriensis,7.5 mg/kg
same,% Cure rate,[7]; [18],0.0%
same,Mice remained negative on day 4,[7]; [18],5/7
same,Mice remained negative on day 7,[7]; [18],0/3
same,% Cure rate,[7]; [19],0.0%
same,Mice remained negative on day 4,[7]; [19],3/7
same,Mice remained negative on day 7,[7]; [19],0/5
same,% Cure rate,[7]; [20],14.28%
same,Mice remained negative on day 4,[7]; [20],7/7
same,Mice remained negative on day 7,[7]; [20],3/6
same,Mice remained negative on day 14,[7]; [20],1/3
same,Mice remained negative on day 21,[7]; [20],1/2
same,Mice remained negative on day 28,[7]; [20],1/1
same,curative dose with oral formulation (calculated),"[7]; x4, oral, aqueous (tween 80/water)",72 mg/kg
C=C[C@H]1C[N@@]2CC[C@H]1C[C@H]2[C@H](O)c1ccnc2ccc(OC)cc12 [quinine],recrudescence,uncomplicated malaria; 10 mg/kg x7 days,16%
same,reduction in parasitaemia (time),cerebral malaria,34.5 h
"C[C@@H]1CC[C@H]2[C@@H](C)C(=O)O[C@@H]3O[C@@]4(C)CC[C@@H]1[C@]32OO4 [artemisiain, artemisinin]",recrudescence,uncomplicated malaria; 20 mg/kg x3 days,38%
same,recrudescence,uncomplicated malaria; 20 mg/kg x5 days,15%
same,reduction in parasitaemia (time),cerebral malaria,16 h
CO[C@H]1O[C@@H]2O[C@@]3(C)CC[C@H]4[C@H](C)CC[C@@H]([C@H]1C)[C@@]24OO3 [artemether],LD50,[4],263 mg/kg
COc1ncnc(NS(=O)(=O)c2ccc(N)cc2)c1OC [sulfadoxin],concentration giving 100% inhibition in vitro,P. falciparum [8],< 5.0 mmol/lit
C[C@H]1[C@H](OC(=O)CCC(=O)O)O[C@@H]2O[C@@]3(C)CC[C@H]4[C@H](C)CC[C@@H]1[C@@]24OO3 [artesunate],LD50,[4],475 mg/kg
